Among the data in US10829501B2 (BRISTOL-MYERS SQUIBB COMPANY, priority 2016, dated 2020) are IC50 values, retold here.

As a reminder, the IC50 is the concentration that inhibits the measured activity by half.

The structures appear in SMILES notation. Counter-ions that a name gives are not always drawn.

Chain of ROCK2 (O75116 whole entry, species assumed): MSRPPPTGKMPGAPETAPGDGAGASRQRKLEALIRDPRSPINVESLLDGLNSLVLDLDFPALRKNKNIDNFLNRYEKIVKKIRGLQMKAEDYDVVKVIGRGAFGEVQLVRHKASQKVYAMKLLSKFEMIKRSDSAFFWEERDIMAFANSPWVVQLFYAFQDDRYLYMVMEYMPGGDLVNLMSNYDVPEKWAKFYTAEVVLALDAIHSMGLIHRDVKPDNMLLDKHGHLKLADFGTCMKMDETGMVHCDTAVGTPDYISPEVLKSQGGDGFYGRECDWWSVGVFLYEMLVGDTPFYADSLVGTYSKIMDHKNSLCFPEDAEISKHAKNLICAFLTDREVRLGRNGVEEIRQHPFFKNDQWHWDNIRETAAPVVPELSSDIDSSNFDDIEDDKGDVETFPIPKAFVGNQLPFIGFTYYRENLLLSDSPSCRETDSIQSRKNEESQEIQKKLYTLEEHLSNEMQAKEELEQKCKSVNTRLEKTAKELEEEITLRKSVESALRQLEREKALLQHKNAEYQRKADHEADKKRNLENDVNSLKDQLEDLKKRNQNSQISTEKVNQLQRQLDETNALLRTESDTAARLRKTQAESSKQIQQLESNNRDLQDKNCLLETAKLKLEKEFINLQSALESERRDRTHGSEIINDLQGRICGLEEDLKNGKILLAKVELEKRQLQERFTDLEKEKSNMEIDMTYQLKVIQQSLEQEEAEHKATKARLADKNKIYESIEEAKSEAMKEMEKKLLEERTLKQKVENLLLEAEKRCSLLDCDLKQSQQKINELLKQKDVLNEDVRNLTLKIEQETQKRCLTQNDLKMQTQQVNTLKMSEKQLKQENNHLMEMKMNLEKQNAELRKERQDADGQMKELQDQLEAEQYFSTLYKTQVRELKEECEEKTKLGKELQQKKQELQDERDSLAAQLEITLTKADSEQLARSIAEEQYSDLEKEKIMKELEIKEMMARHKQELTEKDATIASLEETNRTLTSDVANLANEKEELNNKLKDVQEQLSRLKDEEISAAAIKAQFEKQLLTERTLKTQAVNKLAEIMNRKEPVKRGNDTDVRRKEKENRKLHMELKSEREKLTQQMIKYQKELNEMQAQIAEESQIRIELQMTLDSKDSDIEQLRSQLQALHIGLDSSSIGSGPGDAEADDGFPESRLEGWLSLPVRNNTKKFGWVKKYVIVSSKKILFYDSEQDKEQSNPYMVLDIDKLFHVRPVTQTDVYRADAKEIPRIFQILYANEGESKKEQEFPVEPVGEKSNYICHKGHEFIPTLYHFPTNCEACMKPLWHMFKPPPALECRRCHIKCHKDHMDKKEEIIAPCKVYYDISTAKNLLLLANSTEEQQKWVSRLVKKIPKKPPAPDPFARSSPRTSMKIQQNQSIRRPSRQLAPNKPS

The first assay has as its target ROCK2 (Homo sapiens, UniProt O75116). Kind of assay: ROCK2 kinase inhibition assay (LABCHIP 3000 Reader, FITC peptide substrate).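 Note: rho kinase reaction read by separating phosphorylated from unphosphorylated peptide on chip, with inhibition of kinase activity computed per concentration across a dose-response series.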
Details: not given
Consider `NC(=O)c1cccnc1O[C@H]1CC2(C[C@H](NC(=O)c3cn4ccccc4n3)C2)C1` (stereo partly drawn) [Example 75, N-((aR)-6-((3-carbamoylpyridin-2-yl)oxy)spiro[3.3]-heptan-2-yl)imidazo[1,2-a] pyridine-2-carboxamide, trifluoroacetate], for which the IC50 fell in the range of 250 to 2500 nM.
In turn, `CC(C)(O)COc1ccc2c(C(=O)NC3CC4(C3)CC(Oc3cc(Br)ccc3C(N)=O)C4)cnn2c1` (stereo not shown) [Example 272, N-(6-(5-bromo-2-carbamoylphenoxy)spiro[3.3]heptan-2-yl)-6-(2-hydroxy-2-methylpropoxy)pyrazolo[1,5-a]pyridine-3-carboxamide] showed an IC50 of less than 5 nM.
For the molecule `CC(C)(O)COc1ccc2c(C(=O)NC3CC4(C3)CC(Oc3cc(/C=C/CCO)ccc3C(N)=O)C4)cnn2c1` (stereo not shown) [Example 290, (E)-N-(6-(2-carbamoyl-5-(4-hydroxybut-1-en-1-yl)phenoxy)spiro[3.3]heptan-2-yl)-6-(2-hydroxy-2-methylpropoxy)pyrazolo[1,5-a]pyridine-3-carboxamide], the IC50 fell in the range of 5 to 50 nM.
The molecule `NC(=O)c1cccnc1O[C@H]1CC2(C[C@H](NC(=O)c3cccc(-n4cccn4)c3)C2)C1` (stereo partly drawn) [Example 134, 2-(((aR)-6-(3-(1H-pyrazol-1-yl)benzamido)spiro[3.3]heptan-2-yl)oxy) nicotinamide, trifluoroacetate] yielded an IC50 of 50 to 250 nM.
In the case of `CS(=O)(=O)c1ccc2c(c1)CCN2C(=O)N[C@H]1CC2(C1)C[C@H](Oc1ccccc1C(N)=O)C2` (stereo partly drawn) [Example 39, N-[(aR)-6-(2-carbamoylphenoxy)spiro [3.3]heptan-2-yl]-5-methanesulfonyl-2,3-dihydro-1H-indole-1-carboxamide], the IC50 was in the range of 50 to 250 nM.
`N#Cc1cc(C(=O)N[C@H]2CC3(C2)C[C@H](Oc2ncccc2C(N)=O)C3)ccc1F` (stereo partly drawn) [Example 156, 2-(((aR)-6-(3-cyano-4-fluorobenzamido)spiro[3.3]heptan-2-yl)oxy) nicotinamide] returned an IC50 of 50 to 250 nM.
Same read-out and setting: to `CNC(=O)c1cccc(-c2ccc(C(N)=O)c(OC3CC4(CC(NC(=O)c5cnn6cc(OCC(C)(C)O)ccc56)C4)C3)c2)c1` (stereo not shown) [Example 287, 3′-((6-(6-(2-hydroxy-2-methylpropoxy)pyrazolo[1,5-a]pyridine-3-carboxamido)spiro[3.3]heptan-2-yl)oxy)-N3-methyl-[1,1′-biphenyl]-3,4′-dicarboxamide] belongs 5 to 50 nM.
The molecule `NC(=O)c1ccccc1O[C@H]1CC2(C[C@H](NC(=O)c3cnn4cc(OCC(F)F)ccc34)C2)C1` (stereo partly drawn) [Example 22, N-[(aR)-6-(2-carbamoylphenoxy)spiro[3.3]heptan-2-yl]-6-(2,2-difluoroethoxy)pyrazolo [1,5-a]pyridine-3-carboxamide] showed an IC50 of 5 to 50 nM.
On to `NC(=O)c1cccnc1OC1CC2(CC(NC(=O)c3c[nH]c(-c4ccccc4)n3)C2)C1` [Example 390, N-[(aR)2-({6-(2-phenyl-1H-imidazole)-4-carboxamido]spiro[3.3]heptan-2-yl}oxy)nicotinamide], for which the IC50 was 250 to 2500 nM.
Same read-out and setting: to `NC(=O)c1cccnc1O[C@H]1CC2(C[C@H](NC(=O)c3nn(C(F)F)c4cc(-c5cnn(C(F)F)c5)ccc34)C2)C1` (stereo partly drawn) [Example 112, N-((aR)-6-((3-carbamoylpyridin-2-yl)oxy)spiro[3.3]heptan-2-yl)-1-(difluoromethyl)-6-(1-(difluoromethyl)-1H-pyrazol-4-yl)-1H-indazole-3-caroxamide, trifluoroacettate] belongs less than 5 nM; to `[H][C@]1(Oc2ncccc2C(N)=O)C[C@@]2(C[C@H](NC(=O)c3cn4nc(Cl)ccc4n3)C2)C1` (stereo partly drawn) [Example 62, N-((aR)-6-((3-carbamoylpyridin-2-yl)oxy)spiro[3.3]heptan-2-yl)-6-chloroimidazo[1,2-b]pyridazine-2-carboxamide], 250 to 2500 nM; to `NC(=O)c1ccccc1O[C@H]1CC2(C[C@H](NC(=O)c3cnc4cc(OCCN5CCCC5)ccn34)C2)C1` (stereo partly drawn) [Example 26, N-((aR)-6-(2-carbamoylphenoxy)spiro[3.3]heptan-2-yl)-7-(2-(pyrrolidin-1-yl)ethoxy)imidazo[1,2-a]pyridine-3-carboxamdie], 5 to 50 nM.
Still for that read-out and setting: to `N#Cc1cc(C(=O)N[C@H]2CC3(C2)C[C@H](Oc2ncccc2C(N)=O)C3)cc(-c2cnn(C(F)F)c2)c1` (stereo partly drawn) [Example 198, 2-(((aR)-6-(3-cyano-5-(1-(difluoromethyl)-1H-pyrazol-4-yl)benzamido)spiro[3.3]heptan-2-yl)oxy)nicotinamide] belongs less than 5 nM; to `NC(=O)c1ccccc1OC1CC2(CC(NC(=O)c3cnn4cc(OC5CCOC5)ccc34)C2)C1` (stereo not shown) [Example 4, N-(6-(2-carbamoylphenoxy)spiro[3.3]heptan-2-yl)-6-((tetrahydrofuran-3-yl)oxy)pyrazolo[1,5-a]pyridine-3-carboxamide], 5 to 50 nM.
Take `CC(C)(O)COc1ccc2c(C(=O)NC3CC4(C3)CC(Oc3cc(-c5cccc(C#N)c5)ccc3C(N)=O)C4)cnn2c1` (stereo not shown) [Example 244, N-(6-((4-carbamoyl-3′-cyano-[1,1′-biphenyl]-3-yl)oxy)spiro[3.3]heptan-2-yl)-6-(2-hydroxy-2-methylpropoxy)pyrazolo[1,5-a]pyridine-3-carboxamide]: the IC50 was less than 5 nM.
Molecule `Cc1c(-c2cc(C#N)cc(C(=O)N[C@H]3CC4(C3)C[C@H](Oc3ncccc3C(N)=O)C4)c2)cnn1C` (stereo partly drawn) [Example 185, 2-(((aR)-6-(3-cyano-5-(1,5-dimethyl-1H-pyrazol-4-yl)benzamido)spiro[3.3]heptan-2-yl)oxy)nicotinamide, trifluoroacetate] yielded an IC50 of less than 5 nM.
On the same count and under the same terms, as for `Cc1nnnn1-c1cccc(C(=O)N[C@H]2CC3(C2)C[C@H](Oc2ncccc2C(N)=O)C3)c1` (stereo partly drawn) [Example 142, 2-(((aR)-6-(3-(5-methyl-1H-tetrazol-1-yl)benzamido)spiro[3.3]heptan-2-yl)oxy) nicotinamide, trifluoroacetate], the figure is 50 to 250 nM; as for `C[C@@H](O)COc1ccc2c(C(=O)N[C@H]3CC4(C3)C[C@H](Oc3ncccc3C(N)=O)C4)cnn2c1` (stereo partly drawn) [Example 330, N-((aR)-6-((3-carbamoylpyridin-2-yl)oxy)spiro[3.3]heptan-2-yl)-6-((R)-2-hydroxypropoxy)pyrazolo[1,5-a]pyridine-3-carboxamide], 5 to 50 nM.
Consider `NC(=O)c1cccnc1O[C@H]1CC2(C[C@H](NC(=O)c3cnn4cc(OCC5(O)CC(F)(F)C5)ccc34)C2)C1` (stereo partly drawn) [Example 413, N-((aR)-6-((3-carbamoylpyridin-2-yl)oxy)spiro[3.3]heptan-2-yl)-6-((3,3-difluoro-1-hydroxycyclobutyl)methoxy)pyrazolo[1,5-a]pyridine-3-carboxamide, TFA], for which the IC50 is 5 to 50 nM.
On to `NC(=O)c1cccnc1O[C@H]1CC2(C[C@H](NC(=O)c3cnn4c(C5CC5)c(OC5COC5)ccc34)C2)C1` (stereo partly drawn) [Example 343, N-((aR)-6-((3-carbamoylpyridin-2-yl)oxy)spiro[3.3]heptan-2-yl)-7-cyclopropyl-6-(oxetan-3-yloxy)pyrazolo[1,5-a]pyridine-3-carboxamide], for which the IC50 lay within 5 to 50 nM.
Consider `CN1CCN(c2ccc3c(C(=O)N[C@H]4CC5(C4)C[C@H](Oc4ncccc4C(N)=O)C5)cnn3c2)CC1` (stereo partly drawn) [Example 319, N-((aR)-6-((3-carbamoylpyridin-2-yl)oxy)spiro[3.3]heptan-2-yl)-6-(4-methylpiperazin-1-yl)pyrazolo[1,5-a]pyridine-3-carboxamide], for which the IC50 lay in the range of 5 to 50 nM.
Consider `CC(C)(O)COc1ccc2c(C(=O)NC3CC4(C3)CC(Oc3cc(-c5cc(F)cc(C#N)c5)ccc3C(N)=O)C4)cnn2c1` (stereo not shown) [Example 253, N-(6-((4-carbamoyl-3′-cyano-5′-fluoro-[1,1′-biphenyl]-3-yl)oxy)spiro[3.3]heptan-2-yl)-6-(2-hydroxy-2-methylpropoxy)pyrazolo[1,5-a]pyridine-3-carboxamide], for which the IC50 lay in the range of 5 to 50 nM.
Same read-out and setting: as for `CC(C)(O)COc1ccc2c(C(=O)NC3CC4(C3)CC(Oc3cc(-c5cccc(C(=O)O)c5)ccc3C(N)=O)C4)cnn2c1` (stereo not shown) [Example 296, 4′-carbamoyl-3′-((6-(6-(2-hydroxy-2-methylpropoxy)pyrazolo[1,5-a]pyridine-3-carboxamido)spiro[3.3]heptan-2-yl)oxy)-[1,1′-biphenyl]-3-carboxylic acid], the figure is 5 to 50 nM; as for `CC(C)(C)c1ccnc(C(=O)N[C@H]2CC3(C2)C[C@H](Oc2ncccc2C(N)=O)C3)c1` (stereo partly drawn) [Example 110, 4-(tert-butyl)-N-((aR)-6-((3-carbamoylpyridin-2-yl)oxy)spiro[3.3]heptan-2-yl)picolinamide, bis-trifluoroacetate], 5 to 50 nM; as for `CC(C)(O)COc1ccc2c(C(=O)NC3CC4(C3)CC(Oc3cc(-c5ccc(F)c(C(N)=O)c5)ccc3C(N)=O)C4)cnn2c1` (stereo not shown) [Example 292, 4-fluoro-3′-((6-(6-(2-hydroxy-2-methylpropoxy)pyrazolo[1,5-a]pyridine-3-carboxamido)spiro[3.3]heptan-2-yl)oxy)-[1,1′-biphenyl]-3,4′-dicarboxamide], less than 5 nM.

The assay is the same for the next values; noted with them: read-out: ROCK2 Activity (ROCK2 IC50); 5 μM ATP, 1.5 μM peptide substrate, pH 7.5.
Take `COc1ccc2c(c1)CCc1c-2nn(C)c1C(=O)NC1CC2(C1)CC(Oc1ncccc1C(N)=O)C2` [Example 381, N-((aR)-6-((3-carbamoylpyridin-2-yl)oxy)spiro[3.3]heptan-2-yl)-7-methoxy-2-methyl-4,5-dihydro-2H-benzo[g]indazole-3-carboxamide]: the half-inhibitory concentration (IC50) was 250 to 2500 nM.
As for `CC(C)(O)CCOc1ccc2c(C(=O)NC3CC4(C3)CC(Oc3ncccc3C(N)=O)C4)nc(C(F)F)n2c1` [Example 441, N-((aR)-6-((3-carbamoylpyridin-2-yl)oxy)spiro[3.3]heptan-2-yl)-3-(difluoromethyl)-6-(3-hydroxy-3-methylbutoxy)imidazo[1,5-a]pyridine-1-carboxamide], the IC50 is less than 5 nM.
On to `CC(C)(O)Cn1nc(C(=O)NC2CC3(C2)CC(Oc2ncccc2C(N)=O)C3)c2ccc(F)cc21` [Example 97, N-((aR)-6-((3-carbamoylpyridin-2-yl)oxy)spiro[3.3]heptan-2-yl)-6-fluoro-1-(2-hydroxy-2-methylpropyl)-1H-indazole-3-carboxamide, trifluoroacetate], for which the IC50 lay in the range of 5 to 50 nM.
